Measurements published in patent publication US20250270201A1, “SUBSTITUTED PYRIMIDINYL HYDRAZIDE COMPOUND AND PREPARATION METHOD AND USE THEREOF” (ARIGENX THERAPEUTICS CO., LTD., priority 2022, published 2025).

Target: T1, AHR (Homo sapiens, UniProt P35869)
T1 construct: A human liver cancer cell line HepG2 endogenously expressing an AHR protein; host or cells: HepG2 stably transfected with a CYP1A1-promoter firefly luciferase reporter
T1 sequence (P35869 11-848): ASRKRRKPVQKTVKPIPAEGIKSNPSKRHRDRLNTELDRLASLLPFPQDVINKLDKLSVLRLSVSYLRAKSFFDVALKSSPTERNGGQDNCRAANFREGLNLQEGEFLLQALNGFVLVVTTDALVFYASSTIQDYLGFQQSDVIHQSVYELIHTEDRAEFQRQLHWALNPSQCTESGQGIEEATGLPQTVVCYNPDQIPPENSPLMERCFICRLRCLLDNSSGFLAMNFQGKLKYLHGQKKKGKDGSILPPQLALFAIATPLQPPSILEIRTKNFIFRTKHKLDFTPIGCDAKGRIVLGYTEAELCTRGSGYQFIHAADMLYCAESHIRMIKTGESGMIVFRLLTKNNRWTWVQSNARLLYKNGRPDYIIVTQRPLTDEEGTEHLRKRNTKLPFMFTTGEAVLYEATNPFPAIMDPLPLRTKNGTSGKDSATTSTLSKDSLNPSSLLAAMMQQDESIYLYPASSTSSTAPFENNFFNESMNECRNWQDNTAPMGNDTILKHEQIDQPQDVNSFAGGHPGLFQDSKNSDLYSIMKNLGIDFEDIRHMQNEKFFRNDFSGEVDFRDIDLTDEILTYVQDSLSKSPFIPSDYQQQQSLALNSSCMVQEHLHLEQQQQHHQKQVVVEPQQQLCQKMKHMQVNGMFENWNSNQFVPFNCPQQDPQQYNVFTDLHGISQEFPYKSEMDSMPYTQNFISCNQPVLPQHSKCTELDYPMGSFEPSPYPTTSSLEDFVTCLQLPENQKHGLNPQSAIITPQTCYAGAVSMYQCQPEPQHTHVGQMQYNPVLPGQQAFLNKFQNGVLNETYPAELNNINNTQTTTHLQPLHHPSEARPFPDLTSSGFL
Experiment: Antagonistic effect for AHR in HepG2 cells stably transfected with CYP1A1-promoter firefly luciferase reporter
Assay type: cell-based
Conditions: AHR agonist-stimulated, 24 h compound treatment, average of two replicates
From the text: A human liver cancer cell line HepG2 endogenously expressing an AHR protein (provided by the Stem Cell Bank of the Chinese Academy of Sciences) was adopted for testing. The expression of a CYP1A1 gene is regulated by an activity of AHR. After being activated, AHR can bind to a sequence called XRE on a CYP1A1 enhancer and initiate the expression of the CYP1A1 gene. To quantitatively determine an impact of a compound on the activity of AHR, a 1,200 bp (−1,143 to +57) regulatory sequence upstream of a promoter of the CYP1A1 gene was synthesized through gene synthesis and then inserted into a plasmid vector carrying firefly luciferase. The plasmid was then linearized through single enzyme cleavage and then transfected into HepG2 cells through lipofectin transfection (Lipofectamine 3000), and transfected HepG2 cells were screened by puromycin to obtain a stably-expressed cell line. When an antagonistic effect of a compound for AHR was tested, the expression of firefly luciferase was initiated by an AHR agonist (such as L-kynurenine, kynurenic acid, indirubin, TCDD, and 2-(1H-indol-3-ylcarbonyl)-4-thiazolecarboxylic acid methyl ester (ITE)), and cells were treated with the compound at different concentrations. Then, the inhibition on the expression of luciferase by the compound was measured.
Stably-transfected HepG2 cells were sub-cultivated in Minimum Eagle's medium (MEM) at 37° C. and 5% carbon dioxide. In the MEM, 1 mM sodium pyruvate, 2 mM GlutaMax, 1×non- essential amino acids, 10% Australian fetal bovine serum, 100 U/mL penicillin-streptomycin, and 5 μg/mL puromycin were supplemented. Before testing, HepG2 cells were inoculated into a 96-well plate at a density of 5-8×10^4 cells/well and cultivated for 24 h to 48 h to allow a cell confluency of about 90% before a drug treatment (puromycin was not added in a medium). Before the drug treatment, AHR agonist-containing 2×compound solutions at different concentrations were prepared with a same medium, and then a half of a cell culture medium in the 96-well plate was replaced with a 2×compound solution. An AHR agonist solution including only DMSO at a corresponding concentration was set as a negative control group, and CH223191 at a corresponding concentration (commercially available) was set as a positive control group. 2 separate replicate tests were set for each compound (including a positive control and a negative control). 24 h after the compound treatment, HepG2 cells were lysed by a Steady-Glo luciferase detection system of Promega, and a luciferase signal was measured by an InfiniteM1000 Pro microplate reader of Tecan.
In terms of data processing, for each replicate test of each compound, inhibition percentages of a compound at different concentrations on an activity of AHR were calculated sequentially with a signal of a well at a compound concentration of 0 as 100% and a cell signal of an untreated agonist as 0. Corresponding IC50 of a compound was calculated with an average value of data of two replicates according to the formula
tirougn non-nnear ning, where y represents an inhibition percentage and x represents a concentration of a corresponding compound.
IC50 for each compound was shown in Table 2, where A indicates IC50≤500 nM, B indicates 500 nM<IC50≤1.0 μM, C indicates 1 μM<IC50≤5.0 μM, and D indicates IC50>5.0 μM.

Structure (SMILES)	IC50 [nM]
O=C(NN1CCC[C@H]1CO)c1cc(-c2ccc(Cl)cc2)nc(-c2cccnc2)n1 [Compound 22]	500 to 1000
O=C(NN1CCOCC1CO)c1cc(-c2ccc(C(F)(F)F)cc2)nc(-c2cccnc2)n1 (centres unmarked) [Compound 23]	≤ 500
O=C(NN1CCOCC1)c1cc(-c2ccc(C(F)(F)F)cc2)nc(-c2cccnc2)n1 [Compound 24]	500 to 1000
O=C(NN1CCS(=O)(=O)CC1)c1cc(-c2ccc(C(F)(F)F)cc2)nc(-c2cccnc2)n1 [Compound 25]	500 to 1000
CC1(C)COCCN1NC(=O)c1cc(-c2ccc(Cl)cc2)nc(-c2cccnc2)n1 [Compound 26]	≤ 500
CC1(C)COCCN1NC(=O)c1cc(-c2ccc(C(F)(F)F)cc2)nc(-c2cccnc2)n1 [Compound 27]	≤ 500
CC1COCC(=O)N1NC(=O)c1cc(-c2ccc(Cl)cc2)nc(-c2cccnc2)n1 (centres unmarked) [Compound 28]	500 to 1000
O=C(NN1C(=O)COCC1CO)c1cc(-c2ccc(Cl)cc2)nc(-c2cccnc2)n1 (centres unmarked) [Compound 29]	≤ 500
CC1(C)COCC(=O)N1NC(=O)c1cc(-c2ccc(C(F)(F)F)cc2)nc(-c2cccnc2)n1 [Compound 30]	≤ 500
CC1(C)CN(NC(=O)c2cc(-c3ccc(C(F)(F)F)cc3)nc(-c3cccnc3)n2)CCO1 [Compound 31]	500 to 1000
CC(O)CN(NC(=O)c1cc(-c2ccc(Cl)cc2)nc(-c2cccnc2)n1)C(C)C (centres unmarked) [Compound 32]	≤ 500
CC(=O)N(NC(=O)c1cc(-c2ccc(C(F)(F)F)cc2)nc(-c2cccnc2)n1)c1cnccn1 [Compound 33]	≤ 500
CC(=O)N(NC(=O)c1cc(-c2ccc(C(F)(F)F)cc2)nc(-c2cnn(C)c2)n1)c1cnccn1 [Compound 34]	≤ 500
Cn1cc(-c2nc(C(=O)NN3CCOC[C@@H]3CO)cc(-c3ccc(Cl)cc3)n2)cn1 [Compound 35]	≤ 500
Cn1cc(-c2nc(C(=O)NN3CCOC[C@H]3CO)cc(-c3ccc(Cl)cc3)n2)cn1 [Compound 36]	≤ 500
CC(C)N(NC(=O)c1cc(-c2ccc(C(F)(F)F)nc2)nc(-c2cccc(F)c2)n1)C(C)CO (centres unmarked) [Compound 37]	≤ 500
C[C@@H]1COCCN1NC(=O)c1cc(-c2ccc(C(F)(F)F)cc2)nc(-c2cnn(C)c2)n1 [Compound 38]	500 to 1000
C[C@H]1COCCN1NC(=O)c1cc(-c2ccc(C(F)(F)F)cc2)nc(-c2cnn(C)c2)n1 [Compound 39]	≤ 500
C[C@@H]1COCCN1NC(=O)c1cc(-c2ccc(Cl)cc2)nc(-c2cnn(C)c2)n1 [Compound 40]	≤ 500
C[C@H]1COCCN1NC(=O)c1cc(-c2ccc(Cl)cc2)nc(-c2cnn(C)c2)n1 [Compound 41]	≤ 500
O=C(NN1CCOC[C@H]1CO)c1cc(-c2ccc(C(F)(F)F)cc2)nc(-c2cccnc2)n1 [Compound 42]	≤ 500
O=C(NN1CCOC[C@@H]1CO)c1cc(-c2ccc(C(F)(F)F)cc2)nc(-c2cccnc2)n1 [Compound 43]	≤ 500
Cn1cc(-c2nc(C(=O)NN3CCOC[C@@H]3CO)cc(-c3ccc(C(F)(F)F)cc3)n2)cn1 [Compound 44]	≤ 500
Cn1cc(-c2nc(C(=O)NN3CCOC[C@H]3CO)cc(-c3ccc(C(F)(F)F)cc3)n2)cn1 [Compound 45]	≤ 500
O=C(NN1CCOC[C@@H]1CO)c1cc(-c2ccc(Cl)cc2)nc(-c2cccnc2)n1 [Compound 47]	≤ 500
COc1ccc(-c2cc(C(=O)NN(C(C)C)C(C)CO)nc(-c3cccnc3)n2)cc1 (centres unmarked) [Compound 48]	500 to 1000
Cc1ccc(-c2cc(C(=O)NN(C(C)C)C(C)CO)nc(-c3cccnc3)n2)cc1 (centres unmarked) [Compound 49]	≤ 500
Cc1ccc(-c2cc(C(=O)NN(C(C)C)C(C)CO)nc(-c3cccnc3)n2)cn1 (centres unmarked) [Compound 50]	500 to 1000

The remaining lines, values ahead:

IC50 [nM]	Structure (SMILES)
≤ 500	O=C(NN1CCOC[C@H]1CO)c1cc(-c2ccc(Cl)cc2)nc(-c2cccnc2)n1 (stereo in doubt) [Compound 46]
≤ 500	CC(C)N(NC(=O)c1cc(-c2ccc(C(F)(F)F)cc2)nc(-c2cccnc2)n1)C(C)CO (centres unmarked) [Compound 1, 6-(4-trifluoromethylenyl)-N-(1-hydroxypropyy1-2-yl)-N-isopropyl-2-(pyridin-3-yl)pyrimidin-4-hydrazide]
≤ 500	CC(C)N(NC(=O)c1cc(-c2ccc(Cl)cc2)nc(-c2cccnc2)n1)C(C)CO (centres unmarked) [Compound 2]
≤ 500	CC1COCC(C)N1NC(=O)c1cc(-c2ccc(OC(F)(F)F)cc2)nc(-c2cccnc2)n1 (centres unmarked) [Compound 3]
≤ 500	C[C@H]1COCCN1NC(=O)c1cc(-c2ccc(C(F)(F)F)cc2)nc(-c2cccnc2)n1 [Compound 4]
≤ 500	C[C@@H]1COCCN1NC(=O)c1cc(-c2ccc(C(F)(F)F)cc2)nc(-c2cccnc2)n1 [Compound 5]
≤ 500	C[C@H]1COCCN1NC(=O)c1cc(-c2ccc(OC(F)(F)F)cc2)nc(-c2cccnc2)n1 [Compound 6]
≤ 500	C[C@@H]1COCCN1NC(=O)c1cc(-c2ccc(OC(F)(F)F)cc2)nc(-c2cccnc2)n1 [Compound 7]
≤ 500	C[C@H]1COCCN1NC(=O)c1cc(-c2ccc(Cl)cc2)nc(-c2cccnc2)n1 [Compound 8]
≤ 500	C[C@@H]1COCCN1NC(=O)c1cc(-c2ccc(Cl)cc2)nc(-c2cccnc2)n1 [Compound 9]
≤ 500	CC(C)NNC(=O)c1cc(-c2ccc(C(F)(F)F)cc2)nc(-c2cccnc2)n1 [Compound 10]
≤ 500	CC1COCC(=O)N1NC(=O)c1cc(-c2ccc(OC(F)(F)F)cc2)nc(-c2cccnc2)n1 (centres unmarked) [Compound 11]
≤ 500	CC1COCC(CO)N1NC(=O)c1cc(-c2ccc(C(F)(F)F)cc2)nc(-c2cccnc2)n1 (centres unmarked) [Compound 12]
≤ 500	CC(CO)NNC(=O)c1cc(-c2ccc(C(F)(F)F)cc2)nc(-c2cccnc2)n1 (centres unmarked) [Compound 13]
≤ 500	CC(C)N(NC(=O)c1cc(-c2ccc(OC(F)(F)F)cc2)nc(-c2cccnc2)n1)C(C)CO (centres unmarked) [Compound 14]
≤ 500	C[C@H]1COCCN1NC(=O)c1cc(-c2ccc(OC(F)(F)F)cc2)nc(-c2cnn(C)c2)n1 [Compound 15]
≤ 500	C[C@@H]1COCCN1NC(=O)c1cc(-c2ccc(OC(F)(F)F)cc2)nc(-c2cnn(C)c2)n1 [Compound 16]
≤ 500	CN(CCO)NC(=O)c1cc(-c2ccc(Cl)cc2)nc(-c2cccnc2)n1 [Compound 17]
≤ 500	CN(CCO)NC(=O)c1cc(-c2ccc(C(F)(F)F)cc2)nc(-c2cnn(C)c2)n1 [Compound 18]
≤ 500	CC(C)N(CCO)NC(=O)c1cc(-c2ccc(Cl)cc2)nc(-c2cccnc2)n1 [Compound 19]
≤ 500	CC(C)N(CCO)NC(=O)c1cc(-c2ccc(C(F)(F)F)cc2)nc(-c2cnn(C)c2)n1 [Compound 20]
≤ 500	CCN(CCO)NC(=O)c1cc(-c2ccc(Cl)cc2)nc(-c2cccnc2)n1 [Compound 21]
